Experimental data as given in the supplement of paper PMC13380429.

Experiments:
Conditions in all cases: 72 h
Caco-2 [1] = test: cell viability relative to DMSO; higher = less toxic
Calu-3 [2] = test: as above
HepG2 [3] = test: as above
U2OS [4] = test: as above
Vero E6 [5] = test: as above
Caco-2 [6] = test: relative viability EC50 (midpoint between 100% and the lowest measured viability); higher = less toxic
Calu-3 [7] = test: as above
HepG2 [8] = test: as above
U2OS [9] = test: as above
Vero E6 [10] = test: as above
Caco-2 [11] = test: drug sensitivity score (DSS) for viability; higher = more toxic; extreme values may be limits of the assay
Calu-3 [12] = test: as above
HepG2 [13] = test: as above
U2OS [14] = test: as above
Vero E6 [15] = test: as above

Structure (SMILES) | cell viability (Caco-2 [1]; 1 nM) [%] | cell viability (Caco-2 [1]; 10 nM) [%] | cell viability (Caco-2 [1]; 100 nM) [%] | cell viability (Caco-2 [1]; 1000 nM) [%] | cell viability (Caco-2 [1]; 10000 nM) [%] | cell viability (Calu-3 [2]; 1 nM) [%] | cell viability (Calu-3 [2]; 10 nM) [%] | cell viability (Calu-3 [2]; 100 nM) [%] | cell viability (Calu-3 [2]; 1000 nM) [%] | cell viability (Calu-3 [2]; 10000 nM) [%] | cell viability (HepG2 [3]; 1 nM) [%] | cell viability (HepG2 [3]; 10 nM) [%] | cell viability (HepG2 [3]; 100 nM) [%] | cell viability (HepG2 [3]; 1000 nM) [%] | cell viability (HepG2 [3]; 10000 nM) [%] | cell viability (U2OS [4]; 1 nM) [%] | cell viability (U2OS [4]; 10 nM) [%] | cell viability (U2OS [4]; 100 nM) [%] | cell viability (U2OS [4]; 1000 nM) [%] | cell viability (U2OS [4]; 10000 nM) [%] | cell viability (Vero E6 [5]; 1 nM) [%] | cell viability (Vero E6 [5]; 10 nM) [%] | cell viability (Vero E6 [5]; 100 nM) [%] | cell viability (Vero E6 [5]; 1000 nM) [%] | cell viability (Vero E6 [5]; 10000 nM) [%] | relative viability EC50 (Caco-2 [6]) [µM] | relative viability EC50 (Calu-3 [7]) [µM] | relative viability EC50 (HepG2 [8]) [µM] | relative viability EC50 (U2OS [9]) [µM] | relative viability EC50 (Vero E6 [10]) [µM] | drug sensitivity score (Caco-2 [11]) | drug sensitivity score (Calu-3 [12]) | drug sensitivity score (HepG2 [13]) | drug sensitivity score (U2OS [14]) | drug sensitivity score (Vero E6 [15])
O=C(NNc1ccccc1)c1ccncc1 [plurisin-1] | 106 | 106 | 105 | 91.6 | 101 | 97.9 | 96.6 | 93.2 | 103 | 106 | 110 | 109 | 104 | 114 | 77.8 | 103 | 96.3 | 101 | 99.9 | 99.6 | 102 | 108 | 106 | 96.7 | 95.4 | > 10 | > 10 | > 10 | > 10 | > 10 | 0 | 0 | 0.4 | 0 | 0
CCc1cccc(N(C)C(=N)Nc2cccc3ccccc23)c1 [aptiganel] | 98.1 | 95.6 | 96.4 | 94.5 | 82 | 106 | 105 | 93.2 | 92.5 | 75.1 | 97.6 | 97.2 | 96.1 | 96 | 85.8 | 101 | 107 | 98.5 | 97.5 | 88.2 | 98.2 | 100 | 103 | 96.7 | 88.8 | > 10 | > 10 | > 10 | > 10 | > 10 | 0.7 | 1.4 | 0.1 | 0.1 | 0.1
O=C1CCCN1CC#CCN1CCCC1 [oxotremorine-sesquifumarate] | 110 | 99.1 | 94.7 | 103 | 98.3 | 96 | 96 | 91.9 | 105 | 101 | 101 | 96 | 104 | 94.9 | 82.6 | 97 | 94.3 | 95.3 | 100 | 102 | 105 | 105 | 104 | 93.8 | 92.8 | > 10 | > 10 | > 10 | > 10 | > 10 | 0 | 0 | 0.9 | 0 | 0
COc1ccc(-c2cc(=O)c3c(O)cc(O)cc3o2)cc1O [diosmetin] | 95.9 | 91.6 | 101 | 96.6 | 86.3 | 93.2 | 104 | 91.5 | 93.7 | 78.3 | 97.7 | 109 | 94.6 | 120 | 86.7 | 94.2 | 93.1 | 101 | 96.2 | 90.2 | 95.2 | 96.8 | 91 | 101 | 113 | > 10 | > 10 | > 10 | > 10 | > 10 | 0.4 | 1 | 0 | 0 | 0
